Data as given in PubChem BioAssay AID1259407 (Chemical Carcinogenesis Research Information System (CCRIS), 2018).
The source made the active and inactive calls. No rule for the calls is given here.

Test system: CCRIS mutagenicity, Ames/micronucleus/aberration tests
Test: CCRIS mutagenicity studies
[1] = Test System: AMES SALMONELLA TYPHIMURIUM, Strain/Indicator: TA98, Metabolic Activation: NONE, Method: STANDARD PLATE
[2] = Test System: AMES SALMONELLA TYPHIMURIUM, Strain/Indicator: TA100, Metabolic Activation: NONE, Method: STANDARD PLATE
[3] = Test System: AMES SALMONELLA TYPHIMURIUM, Strain/Indicator: TA98, Metabolic Activation: NONE, Method: PREINCUBATION

Measured: mutagenic call

O=[N+]([O-])C(Cl)(Br)Br
inactive: Test System: Ames Salmonella typhimurium, Strain/Indicator: RSJ100, Metabolic Activation: None, Method: Standard Plate inactive; negative | Test System: Ames Salmonella typhimurium, Strain/Indicator: RSJ100, Metabolic Activation: Rat, Liver, S-9, Aroclor, Method: Standard Plate inactive; negative | Test System: Ames Salmonella typhimurium, Strain/Indicator: TA98, Metabolic Activation: None, Method: Standard Plate inactive; negative | Test System: Ames Salmonella typhimurium, Strain/Indicator: TA98, Metabolic Activation: Rat, Liver, S-9, Aroclor, Method: Standard Plate inactive; negative | Test System: Ames Salmonella typhimurium, Strain/Indicator: TA100, Metabolic Activation: None, Method: Standard Plate inactive; negative | Test System: Ames Salmonella typhimurium, Strain/Indicator: TA100, Metabolic Activation: Rat, Liver, S-9, Aroclor, Method: Standard Plate inactive; negative | Test System: Ames Salmonella typhimurium, Strain/Indicator: TA104, Metabolic Activation: None, Method: Standard Plate inactive; negative | Test System: Ames Salmonella typhimurium, Strain/Indicator: TA104, Metabolic Activation: Rat, Liver, S-9, Aroclor, Method: Standard Plate inactive; negative | Test System: Ames Salmonella typhimurium, Strain/Indicator: TPT100, Metabolic Activation: None, Method: Standard Plate inactive; negative

CC(=O)c1cc(C(C)(C)C)cc2c1CCC2(C)C
inactive: Test System: AMES SALMONELLA TYPHIMURIUM, Strain/Indicator: TA97, Metabolic Activation: NONE, Method: STANDARD PLATE inactive; negative | Test System: AMES SALMONELLA TYPHIMURIUM, Strain/Indicator: TA97, Metabolic Activation: RAT LIVER S-9, AROCLOR 1254, Method: STANDARD PLATE inactive; negative | [1] inactive; negative | Test System: AMES SALMONELLA TYPHIMURIUM, Strain/Indicator: TA98, Metabolic Activation: RAT LIVER S-9, AROCLOR 1254, Method: STANDARD PLATE inactive; negative | [2] inactive; negative | Test System: AMES SALMONELLA TYPHIMURIUM, Strain/Indicator: TA100, Metabolic Activation: RAT LIVER S-9, AROCLOR 1254, Method: STANDARD PLATE inactive; negative | Test System: AMES SALMONELLA TYPHIMURIUM, Strain/Indicator: TA102, Metabolic Activation: NONE, Method: STANDARD PLATE inactive; negative | Test System: AMES SALMONELLA TYPHIMURIUM, Strain/Indicator: TA102, Metabolic Activation: RAT LIVER S-9, AROCLOR 1254, Method: STANDARD PLATE inactive; negative

O=CC1C=COC=C1
inactive: [1] inactive; negative | Test System: AMES SALMONELLA TYPHIMURIUM, Strain/Indicator: TA98, Metabolic Activation: RAT, LIVER, S-9, PHENOBARBITAL, Method: STANDARD PLATE inactive; negative | [2] inactive; negative | Test System: AMES SALMONELLA TYPHIMURIUM, Strain/Indicator: TA100, Metabolic Activation: RAT, LIVER, S-9, PHENOBARBITAL, Method: STANDARD PLATE inactive; negative | Test System: AMES SALMONELLA TYPHIMURIUM, Strain/Indicator: TM677/8-AZAGUANINE, Metabolic Activation: NONE, Method: STANDARD PLATE inactive; negative

Nc1cccc2nc3c(N)cccc3nc12
active: [3] active; positive
inactive: Test System: AMES SALMONELLA TYPHIMURIUM, Strain/Indicator: TA98, Metabolic Activation: RAT, LIVER, S-9, PCB, Method: PREINCUBATION inactive; negative

O=NN(CCc1c[nH]c2ccccc12)C1OC[C@@H](O)[C@H](O)[C@H]1O (stereo partly drawn)
active: Test System: AMES SALMONELLA TYPHIMURIUM, Strain/Indicator: TA100, Metabolic Activation: NONE, Method: LIQUID INCUBATION active; positive

c1cc2c3c(cccc3c1)CC2
inactive: Test System: AMES SALMONELLA TYPHIMURIUM, Strain/Indicator: TA97, Metabolic Activation: HAMSTER, LIVER, S-9, AROCLOR 1254 (10%), Method: PREINCUBATION inactive; negative | Test System: AMES SALMONELLA TYPHIMURIUM, Strain/Indicator: TA97, Metabolic Activation: HAMSTER, LIVER, S-9, AROCLOR 1254 (30%), Method: PREINCUBATION inactive; negative | Test System: AMES SALMONELLA TYPHIMURIUM, Strain/Indicator: TA97, Metabolic Activation: NONE, Method: PREINCUBATION inactive; negative | Test System: AMES SALMONELLA TYPHIMURIUM, Strain/Indicator: TA97, Metabolic Activation: RAT, LIVER, S-9, AROCLOR 1254 (10%), Method: PREINCUBATION inactive; negative | Test System: AMES SALMONELLA TYPHIMURIUM, Strain/Indicator: TA97, Metabolic Activation: RAT, LIVER, S-9, AROCLOR 1254 (30%), Method: PREINCUBATION inactive; negative | Test System: AMES SALMONELLA TYPHIMURIUM, Strain/Indicator: TA98, Metabolic Activation: HAMSTER, LIVER, S-9, AROCLOR 1254 (10%), Method: PREINCUBATION inactive; negative | Test System: AMES SALMONELLA TYPHIMURIUM, Strain/Indicator: TA98, Metabolic Activation: HAMSTER, LIVER, S-9, AROCLOR 1254 (30%), Method: PREINCUBATION inactive; negative | [3] inactive; negative | Test System: AMES SALMONELLA TYPHIMURIUM, Strain/Indicator: TA98, Metabolic Activation: RAT, LIVER, S-9, AROCLOR 1254 (10%), Method: PREINCUBATION inactive; negative | Test System: AMES SALMONELLA TYPHIMURIUM, Strain/Indicator: TA98, Metabolic Activation: RAT, LIVER, S-9, AROCLOR 1254 (30%), Method: PREINCUBATION inactive; negative | Test System: AMES SALMONELLA TYPHIMURIUM, Strain/Indicator: TA100, Metabolic Activation: HAMSTER, LIVER, S-9, AROCLOR 1254 (10%), Method: PREINCUBATION inactive; negative | Test System: AMES SALMONELLA TYPHIMURIUM, Strain/Indicator: TA100, Metabolic Activation: HAMSTER, LIVER, S-9, AROCLOR 1254 (30%), Method: PREINCUBATION inactive; negative | Test System: AMES SALMONELLA TYPHIMURIUM, Strain/Indicator: TA100, Metabolic Activation: NONE, Method: PREINCUBATION inactive; negative | Test System: AMES SALMONELLA TYPHIMURIUM, Strain/Indicator: TA100, Metabolic Activation: RAT, LIVER, S-9, AROCLOR 1254 (10%), Method: PREINCUBATION inactive; negative | Test System: AMES SALMONELLA TYPHIMURIUM, Strain/Indicator: TA100, Metabolic Activation: RAT, LIVER, S-9, AROCLOR 1254 (30%), Method: PREINCUBATION inactive; negative | Test System: AMES SALMONELLA TYPHIMURIUM, Strain/Indicator: TA1535, Metabolic Activation: HAMSTER, LIVER, S-9, AROCLOR 1254 (10%), Method: PREINCUBATION inactive; negative | Test System: AMES SALMONELLA TYPHIMURIUM, Strain/Indicator: TA1535, Metabolic Activation: HAMSTER, LIVER, S-9, AROCLOR 1254 (30%), Method: PREINCUBATION inactive; negative | Test System: AMES SALMONELLA TYPHIMURIUM, Strain/Indicator: TA1535, Metabolic Activation: NONE, Method: PREINCUBATION inactive; negative | Test System: AMES SALMONELLA TYPHIMURIUM, Strain/Indicator: TA1535, Metabolic Activation: RAT, LIVER, S-9, AROCLOR 1254 (10%), Method: PREINCUBATION inactive; negative | Test System: AMES SALMONELLA TYPHIMURIUM, Strain/Indicator: TA1535, Metabolic Activation: RAT, LIVER, S-9, AROCLOR 1254 (30%), Method: PREINCUBATION inactive; negative | Test System: AMES SALMONELLA TYPHIMURIUM, Strain/Indicator: TA1537, Metabolic Activation: HAMSTER, LIVER, S-9, AROCLOR 1254 (30%), Method: PREINCUBATION inactive; negative | Test System: AMES SALMONELLA TYPHIMURIUM, Strain/Indicator: TA1537, Metabolic Activation: NONE, Method: PREINCUBATION inactive; negative | Test System: AMES SALMONELLA TYPHIMURIUM, Strain/Indicator: TA1537, Metabolic Activation: RAT, LIVER, S-9, AROCLOR 1254 (30%), Method: PREINCUBATION inactive; negative
